Calls of active or inactive are those of the source.
What was measured:
[1] = inhibitors of firefly luciferase expression or activity, dose response, H4 neuroglioma cells, luminescence (AID 1990); type: functional, cell-based
[2] = target: T1, RNA-binding protein pos-1 (Caenorhabditis elegans, UniProt G5EF15); assay: inhibitors of POS-1/mex-3 RNA binding, dose response, biochemical, fluorescence polarization (AID 1964);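 further: purified POS-1 fused to maltose binding protein made in E. coli; potency of compounds blocking POS-1 binding to fluorescent RNA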
T1 sequence (G5EF15 whole entry): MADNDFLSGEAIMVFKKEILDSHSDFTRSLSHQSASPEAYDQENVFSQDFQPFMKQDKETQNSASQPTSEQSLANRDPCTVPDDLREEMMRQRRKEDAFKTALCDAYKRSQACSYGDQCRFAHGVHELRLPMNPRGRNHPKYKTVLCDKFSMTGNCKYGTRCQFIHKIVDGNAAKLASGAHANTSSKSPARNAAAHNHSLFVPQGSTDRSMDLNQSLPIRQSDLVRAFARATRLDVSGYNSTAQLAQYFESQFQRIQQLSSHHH

[3] = target: T2, Zinc finger protein mex-5 (Caenorhabditis elegans, UniProt Q9XUB2); assay: MEX-5/TCR-2 RNA interaction inhibitors, dose response, biochemical, C. elegans, fluorescence polarization (AID 1960)
T2 sequence (Q9XUB2 whole entry): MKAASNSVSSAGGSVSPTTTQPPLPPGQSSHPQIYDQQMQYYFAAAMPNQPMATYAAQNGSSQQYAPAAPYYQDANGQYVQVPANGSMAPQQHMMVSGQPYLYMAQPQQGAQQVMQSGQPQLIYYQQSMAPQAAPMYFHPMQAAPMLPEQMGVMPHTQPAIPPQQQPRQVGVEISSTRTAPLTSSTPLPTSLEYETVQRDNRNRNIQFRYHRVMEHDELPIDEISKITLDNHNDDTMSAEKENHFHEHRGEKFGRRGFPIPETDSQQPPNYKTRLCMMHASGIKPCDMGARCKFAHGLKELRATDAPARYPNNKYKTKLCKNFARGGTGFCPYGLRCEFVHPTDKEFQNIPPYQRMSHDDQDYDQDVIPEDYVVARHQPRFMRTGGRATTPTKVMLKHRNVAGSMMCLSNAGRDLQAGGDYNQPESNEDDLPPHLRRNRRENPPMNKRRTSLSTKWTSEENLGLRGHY

[4] = target: T3, Dual specificity protein phosphatase 6 (Rattus norvegicus, UniProt Q64346); assay: MKP-3 phosphatase inhibitors, primary screen, biochemical, rat enzyme, in vitro (AID 425)
T3 sequence (Q64346 whole entry): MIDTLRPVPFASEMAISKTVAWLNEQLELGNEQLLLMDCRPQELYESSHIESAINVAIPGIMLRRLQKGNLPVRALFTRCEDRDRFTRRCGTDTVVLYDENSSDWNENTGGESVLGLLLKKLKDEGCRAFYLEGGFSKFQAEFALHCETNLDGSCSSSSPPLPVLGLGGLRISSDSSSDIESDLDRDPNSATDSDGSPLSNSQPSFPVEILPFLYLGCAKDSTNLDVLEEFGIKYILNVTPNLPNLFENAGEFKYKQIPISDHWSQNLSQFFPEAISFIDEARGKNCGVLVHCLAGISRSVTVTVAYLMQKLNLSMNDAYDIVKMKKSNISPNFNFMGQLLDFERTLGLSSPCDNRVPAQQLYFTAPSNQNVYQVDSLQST

[5] = target: Dual specificity tyrosine-phosphorylation-regulated kinase 1A (Rattus norvegicus, UniProt Q63470); type: biochemical, Homo sapiens
[6] = target: T4, Histone-lysine N-methyltransferase NSD2 (Homo sapiens, UniProt O96028); type: biochemical
T4 sequence (O96028 whole entry): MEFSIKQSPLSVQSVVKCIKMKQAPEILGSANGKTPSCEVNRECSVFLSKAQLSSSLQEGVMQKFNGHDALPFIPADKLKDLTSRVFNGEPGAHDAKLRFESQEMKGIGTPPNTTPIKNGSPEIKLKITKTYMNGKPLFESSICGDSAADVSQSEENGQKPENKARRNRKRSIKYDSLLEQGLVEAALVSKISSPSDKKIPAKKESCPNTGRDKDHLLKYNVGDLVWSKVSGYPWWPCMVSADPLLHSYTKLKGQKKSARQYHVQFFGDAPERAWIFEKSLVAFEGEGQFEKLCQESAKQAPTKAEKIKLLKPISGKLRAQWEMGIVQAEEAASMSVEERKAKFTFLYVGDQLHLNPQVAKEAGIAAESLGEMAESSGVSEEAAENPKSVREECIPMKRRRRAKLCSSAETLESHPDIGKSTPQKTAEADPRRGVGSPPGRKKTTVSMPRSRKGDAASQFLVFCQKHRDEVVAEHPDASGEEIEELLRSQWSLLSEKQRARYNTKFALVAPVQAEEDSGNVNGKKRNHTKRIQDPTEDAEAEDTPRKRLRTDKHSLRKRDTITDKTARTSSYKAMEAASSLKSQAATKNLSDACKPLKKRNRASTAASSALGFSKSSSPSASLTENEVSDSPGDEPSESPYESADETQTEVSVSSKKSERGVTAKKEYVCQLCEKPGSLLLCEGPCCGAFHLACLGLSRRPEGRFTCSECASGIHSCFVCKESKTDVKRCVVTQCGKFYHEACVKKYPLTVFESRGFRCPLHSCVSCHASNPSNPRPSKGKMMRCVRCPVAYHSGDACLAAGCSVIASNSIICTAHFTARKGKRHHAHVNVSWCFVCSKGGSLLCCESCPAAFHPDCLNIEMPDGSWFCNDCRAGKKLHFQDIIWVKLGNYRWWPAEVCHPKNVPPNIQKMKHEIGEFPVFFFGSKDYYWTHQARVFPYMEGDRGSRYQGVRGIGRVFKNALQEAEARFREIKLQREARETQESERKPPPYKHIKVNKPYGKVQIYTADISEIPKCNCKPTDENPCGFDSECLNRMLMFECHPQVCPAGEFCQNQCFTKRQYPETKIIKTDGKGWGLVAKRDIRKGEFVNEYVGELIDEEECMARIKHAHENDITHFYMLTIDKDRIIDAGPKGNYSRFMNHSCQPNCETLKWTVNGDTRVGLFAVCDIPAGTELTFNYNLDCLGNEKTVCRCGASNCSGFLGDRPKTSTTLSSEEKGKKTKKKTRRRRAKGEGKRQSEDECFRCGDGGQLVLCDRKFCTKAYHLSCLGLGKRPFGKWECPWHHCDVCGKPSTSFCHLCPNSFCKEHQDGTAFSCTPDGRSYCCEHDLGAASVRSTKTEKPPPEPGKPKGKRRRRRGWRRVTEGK

[7] = target: Dual specificity protein phosphatase 3 (Homo sapiens, UniProt P51452); assay: VHR1 phosphatase inhibitors, primary screen, biochemical, absorbance, uHTS (AID 1654)
Dual specificity protein phosphatase 3, sequence (P51452 whole entry): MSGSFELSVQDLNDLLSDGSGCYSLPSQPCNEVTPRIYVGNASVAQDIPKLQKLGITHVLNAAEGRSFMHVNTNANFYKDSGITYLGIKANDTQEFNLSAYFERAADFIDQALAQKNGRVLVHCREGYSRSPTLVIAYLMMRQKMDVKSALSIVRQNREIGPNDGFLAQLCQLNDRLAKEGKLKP

[8] = target: Small ubiquitin-related modifier 2 (Homo sapiens, UniProt P61956); assay: SUMO2–SIM peptide binding inhibitors, dose response, selectivity assay for SUMO1 interaction inhibitor project, biochemical, fluorescence polarization, uHTS hits (AID 624385); type: functional; settings: read-out: IC50_Mean
Small ubiquitin-related modifier 2, sequence (P61956 whole entry): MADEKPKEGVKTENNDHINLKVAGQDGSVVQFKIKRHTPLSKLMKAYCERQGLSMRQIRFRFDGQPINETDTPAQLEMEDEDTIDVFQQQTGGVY

[9] = target: T5, Small ubiquitin-related modifier 1 (Homo sapiens, UniProt P63165); assay: inhibitors of SUMO1 peptide binding, dose response, biochemical, fluorescence polarization, uHTS hits (AID 624382); type: functional; settings: read-out: IC50_Mean
T5 sequence (P63165 whole entry): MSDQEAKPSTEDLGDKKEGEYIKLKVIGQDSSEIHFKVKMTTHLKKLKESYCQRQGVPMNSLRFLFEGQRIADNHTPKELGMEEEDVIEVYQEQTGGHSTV

[10] = target: T5, Small ubiquitin-related modifier 1; assay: inhibitors of SUMO1 partner interactions, dose response, biochemical, FRET (AID 624383); type: functional; settings: read-out: IC50_Mean

Row | Compound | EC50 [2] | EC50 [3] | IC50 [4] | AC50 [5] | AC50 [6] | further results
1 | O=C1c2ccccc2C(=O)c2[nH]c(O)nc21 | 28.9 µM (active) | 17.9 µM (active) |  |  |  | EC50 [1]: 5.93 µM (active)
2 | N#Cc1c(N2CCCC2)nc(N)c2c(N)nc(N3CCCC3)cc12 |  |  | 1.05 µM (active) | 0.287 µM (active) |  | 
3 | CCOC(=O)C1=C(C)OC2(O)c3ccccc3C(=O)C12O (stereo not given) |  |  |  |  | 8.9 µM (active) | 
4 | COC(=O)c1cc(C)nc2c1C(=O)C(=O)C=C2N1CCOCC1 |  |  |  | 0.983 µM (active) | 0.407 µM (active) | 
5 | NS(=O)(=O)c1cc(C(=O)NC2CCSc3ccccc32)ccc1Cl (stereo not given) | 13.4 µM (inconclusive) | 18.9 µM (inconclusive) | > 158 µM (not active) |  |  | IC50 [7]: < 1.23 µM (inactive); IC50 [8]: 6.65 µM (active); IC50 [9]: 4.11 µM (active); IC50 [10]: 2.29 µM (active)

— ChEMBL document CHEMBL1201862, “PubChem BioAssay data set” (2004)
